This data set in a line: Appearance of acid susceptible proton pump inhibitor powders before and after gamma sterilization. Type of data set: physicochemical. The settings on record: for Color change after radiation: gamma sterilization 25 kGy; for Appearance After sterilization (25 kGy) / Appearance Before sterilization: powder; for Appearance After sterilization (25 kGy): after gamma sterilization 25 kGy; for Appearance Before sterilization: before gamma sterilization. On the procedure:
In addition to esomeprazole sodium exemplified in Example 1, three other acid susceptible proton pump inhibitors, omeprazole sodium, pantoprazole sodium and lansoprazole, were gamma sterilized with a sterilizing dose of 25 kGy. The appearance of the powder was determined before and after gamma sterilization.

On to `Cc1c(OCC(F)(F)F)ccnc1C[S+]([O-])c1nc2ccccc2[nH]1` (stereo not shown) [Lansoprazole], for which the “Color change after radiation” value is on record as “no color change”.

As for `COc1ccc2[n-]c([S+]([O-])Cc3ncc(C)c(OC)c3C)nc2c1.[Na+]` (stereo not shown) [Omeprazole sodium], the “Color change after radiation” value is given as “some small (very minor) color changes”, the “Appearance After sterilization (25 kGy)” value is listed as “Very slightly yellow” and the “Appearance Before sterilization” value was “White to off-white”.

For `COc1ccnc(C[S+]([O-])c2nc3ccc(OC(F)F)cc3[nH]2)c1OC` (stereo not shown) [Pantoprazole sodium], the “Color change after radiation” value is “some small (very minor) color changes”, the “Appearance After sterilization (25 kGy)” value is “Very slightly yellow” and the “Appearance Before sterilization” value is listed as “White to off-white”.

Values taken from patent US20090111856A1, “Parenteral Formulation Comprising Proton Pump Inhibitor Sterilized in its Final Container by Ionizing Radiation” (priority 2006, published 2009).
